Reference: US12385013B2, “Differentiation of pancreatic endocrine cells” (Vertex Pharmaceuticals Incorporated, priority 2020, dated 2025)

How the values were obtained:
EZH2 = EZH2 (Homo sapiens, UniProt Q15910); conditions: cited from earlier work
[1] = test system: S5c cells differentiated from human stem cells; assay: Flow cytometry of NKX6.1/ISL1 at S5c; format: cell-based; conditions: for effect on alpha cells (ISL1-positive/NKX6.1-negative) / effect on sc-EC cells (NKX6.1-positive/ISL-negative): PDBU 0.5 μM or TPPB 0.1 μM on S4d5, S5d1, S5d2
Description: In one experiment, effect of application of PDBU and gamma secretase inhibitor, XXI, was tested. In this experiment, three differentiation conditions were examined and compared: Version A protocol; Version B; Version B+XXI (both PDBU and XXI was applied from S4d5 to S5d2, and XXI continued to be applied throughout S5). FIG. 10B summarizes the percentages of ISL1-positive cells and ISL1-negative cells at S5c generated via different protocols, as measured by flow cytometry (exemplified in FIG. 10A). As shown in the figure, combined PKC activation and gamma secretase inhibition starting during S4 led to robust induction of ISL1-positive cells from about 65% to higher than 90%, whereas PKC activation alone led to about 80% ISL1-positive cells.
(§1) In another experiment, the effect of two different PKC activators on enterochromaffin cells and alpha cells was examined. In this experiment, three differentiation conditions were examined and compared: Version A protocol; Version A with PDBU applied at 0.5 μM on days S4d5, S5d1, and S5d2 (VA+PDBU); and Version A with ((2S,5S)-(E,E)-8-(5-(4-(Trifluoromethyl)phenyl)-2,4-pentadienoylamino)benzolactam) at 0.1 μM on days S4d5, S5d1, and S5d2 (VA+TPPB). FIG. 11B summarizes the percentages of NKX6.1-positive/ISL-negative cells and ISL1-positive/NKX6.1-negative cells at S5c generated via the different protocols, as measured by flow cytometry (exemplified in FIG. 11A).

[2] = test system: cells differentiated from human stem cells; assay: Yield of total cells; format: cell-based
Description: as §1

[3] = test system: S5c cells differentiated from human stem cells; assay: Single-cell RNA sequencing of S5c cells after stem cell differentiation; format: cell-based; conditions: compared to Version A protocol, PDBU S4d5 to S5d2
Description: (§2) Both Version A and Version B protocols are 6-stage stepwise protocols that share similar reagents and treatment timing. With Version A protocols, stem cells were treated with reagents in the following consecutive orders during the first five stages: Stage 1 (S1), Activin-A for 3 days and also CHIR99021 for the first 24 hr; Stage 2 (S2), KGF for 3 days; Stage 3 (S3), KGF, PDBU, Sant-1, retinoic acid (RA), Activin A, and Thiazovivin for 2 days, and also DMH-1 for the first day; Stage 4 (S4), KGF, Sant-1, Thiazovivin, Activin A, and RA for 6 days; Stage 5 (S5), XXI, Alk5i, GC-1, LDN-193189, Thiazovivin, Staurosporine, and DZNEP for 7 days, and also RA, Sant-1, and Betacellulin for the first 2 days. In Version B protocols, one difference from Version A protocols is that the cells were supplemented with PDBU from day 5 of Stage 4 (S4d5) to day 2 of Stage 5 (S5d2). In one experiment, 500 nM of PDBU was used to treat the cells during S4d5 to S5d2.

[4] = test system: Stage 6 cells differentiated from human stem cells; assay: Flow cytometry of Stage 6 endocrine cell populations (C-peptide/VMAT1, GCG/SST); format: cell-based
Description: as §2
In one experiment, four different exemplary Stage 6 treatment paradigms were also tested at S6 in combination with the first five stages of Version A or Version B protocols. Briefly, i) with S6-a paradigm, S5c cells were cultured in DMEM/F12 medium containing 1% HSA for 7-14 days; ii) with S6-b paradigm, S5c cells were cultured in MCDB131 medium containing 0.05% HSA and the following supplements (per 1 L MCDB131): 0.44 g Glucose, 1.23 g NaHCO3, 0.044 g Vitamin C, 10 ml Glutamax, and 5 ml ITS-x; iii) with S6-c paradigm, S5c cells were cultured in MCDB131 medium containing 0.05% HSA and vitamin C for 7-14 days, during which the cells were treated with 10 μM Alk5i, 1 μM GC-1, 100 nM LDN-193189, 2.5 μM Thiazovivin, 3 nM SSP, and 100 nM DZNEP for the first four days; iv) with S6-d paradigm, S5c cells were cultured in MCDB131 medium (no glutamine base media) containing 0.05% HSA, ITS-X, vitamin C, and 4 mM Gln, as well as […] Alk5i, 1 μM GC-1, 100 nM LDN-193189, 2.5 μM Thiazovivin, 3 nM SSP, and 100 nM DZNEP, for four days, followed by culturing in MCDB131 medium (no glutamine base media) containing 0.05% HSA, ITS-X, vitamin C, and 4 mM Gln with no additional factors for additional 3-10 days.
As shown in the figure, with Version A protocols, the percentage of C-peptide-positive, VMAT1-negative cells on S6d9 or S6d14 were all around 35%, except for VA/S6-a and VA/S6-d on S6d9 (both around 40%), whereas with Version B protocols, the percentage of C-peptide-positive, VMAT1-negative cells was from 45% to 55% on S6d9, and around 45% on S6d14.

[5] = test system: S5c cells differentiated from human stem cells; assay: SOX9 expression at the end of S5; format: cell-based; conditions: compared to Version A protocols
S6d13 cells = assay: In vitro glucose-stimulated insulin secretion response; format: cell-based, human
From the text: In one experiment, in vitro glucose-stimulated insulin secretion response of S6d13 cells generated by Version A and Version B protocols was examined.

[6] = test system: Stage 6 cells differentiated from human stem cells; assay: Insulin content of generated cells; format: cell-based; conditions: comparison between protocols

Chain of EZH2 (Q15910 whole entry, species assumed): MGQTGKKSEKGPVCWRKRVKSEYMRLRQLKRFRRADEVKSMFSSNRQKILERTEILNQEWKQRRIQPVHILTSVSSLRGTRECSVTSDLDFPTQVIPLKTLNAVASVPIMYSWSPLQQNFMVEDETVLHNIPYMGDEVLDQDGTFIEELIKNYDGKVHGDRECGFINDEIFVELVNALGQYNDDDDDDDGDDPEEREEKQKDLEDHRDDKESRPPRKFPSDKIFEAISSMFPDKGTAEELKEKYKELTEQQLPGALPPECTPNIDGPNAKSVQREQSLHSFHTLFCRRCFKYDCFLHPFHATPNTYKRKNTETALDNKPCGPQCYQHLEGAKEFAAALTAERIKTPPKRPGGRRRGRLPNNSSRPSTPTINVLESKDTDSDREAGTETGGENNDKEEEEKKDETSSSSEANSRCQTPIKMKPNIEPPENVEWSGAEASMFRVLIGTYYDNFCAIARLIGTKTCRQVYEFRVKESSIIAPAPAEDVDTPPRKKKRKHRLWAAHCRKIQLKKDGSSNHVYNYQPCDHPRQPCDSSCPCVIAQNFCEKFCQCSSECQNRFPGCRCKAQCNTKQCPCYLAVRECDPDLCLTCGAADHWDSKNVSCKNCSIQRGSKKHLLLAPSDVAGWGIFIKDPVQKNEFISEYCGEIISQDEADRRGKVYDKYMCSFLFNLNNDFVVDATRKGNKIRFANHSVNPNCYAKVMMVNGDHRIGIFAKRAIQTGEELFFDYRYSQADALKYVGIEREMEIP
Chain of EZH2 (O75530 whole entry partner, species assumed): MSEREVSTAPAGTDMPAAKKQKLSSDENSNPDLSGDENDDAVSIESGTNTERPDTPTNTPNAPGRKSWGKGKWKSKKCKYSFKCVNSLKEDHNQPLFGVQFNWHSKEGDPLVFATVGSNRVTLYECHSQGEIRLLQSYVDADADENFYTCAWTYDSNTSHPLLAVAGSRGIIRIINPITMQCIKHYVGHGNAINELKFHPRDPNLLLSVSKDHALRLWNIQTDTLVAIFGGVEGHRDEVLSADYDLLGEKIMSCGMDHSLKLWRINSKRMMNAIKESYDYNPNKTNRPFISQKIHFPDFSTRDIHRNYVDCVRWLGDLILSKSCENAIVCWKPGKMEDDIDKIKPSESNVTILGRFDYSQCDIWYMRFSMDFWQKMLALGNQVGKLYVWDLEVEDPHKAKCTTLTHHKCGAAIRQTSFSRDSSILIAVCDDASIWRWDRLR
Chain of EZH2 (Q15022 whole entry partner, species assumed): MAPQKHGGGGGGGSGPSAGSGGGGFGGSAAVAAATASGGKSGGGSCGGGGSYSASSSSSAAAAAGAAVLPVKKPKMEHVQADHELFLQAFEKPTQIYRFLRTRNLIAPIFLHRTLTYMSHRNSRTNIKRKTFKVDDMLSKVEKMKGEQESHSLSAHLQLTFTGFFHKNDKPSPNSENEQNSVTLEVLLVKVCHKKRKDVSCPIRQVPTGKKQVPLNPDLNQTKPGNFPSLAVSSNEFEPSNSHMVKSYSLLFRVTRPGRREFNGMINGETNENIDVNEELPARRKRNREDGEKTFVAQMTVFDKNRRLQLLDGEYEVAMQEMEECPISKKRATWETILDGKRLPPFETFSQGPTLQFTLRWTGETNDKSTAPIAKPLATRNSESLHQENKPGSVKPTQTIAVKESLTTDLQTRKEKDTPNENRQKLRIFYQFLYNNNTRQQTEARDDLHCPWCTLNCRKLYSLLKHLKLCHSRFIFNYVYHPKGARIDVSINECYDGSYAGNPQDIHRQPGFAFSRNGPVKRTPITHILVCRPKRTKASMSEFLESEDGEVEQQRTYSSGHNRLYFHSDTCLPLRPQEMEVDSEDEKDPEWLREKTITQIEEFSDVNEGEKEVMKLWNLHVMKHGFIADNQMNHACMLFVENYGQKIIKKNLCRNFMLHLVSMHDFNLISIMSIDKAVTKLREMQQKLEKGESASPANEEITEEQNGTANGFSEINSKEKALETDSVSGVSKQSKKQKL

In the case of `CC[C@H](C)n1cc(C)c2c(C(=O)NCc3c(C)cc(C)[nH]c3=O)cc(-c3ccc(N4CCNCC4)nc3)cc21` [GSK126], the “selectivity for EZH2 over EZH1” value (EZH2) is given as 150 fold.

In the case of `CCCc1cc(C)[nH]c(=O)c1CNC(=O)c1cc(-c2ccc(N3CCN(C(C)C)CC3)nc2)cc2c1cnn2C(C)C` [UNC1999], the “selectivity relative to GSK126” value (EZH2) is given as “less selective”.

In the case of `CC(C)[C@H]1C(=O)N[C@H](CO)Cc2cc(NC(=O)/C=C/C=C/c3ccc(C(F)(F)F)cc3)ccc2N1C` [VA/TPPB, ((2S,5S)-(E,E)-8-(5-(4-(Trifluoromethyl)phenyl)-2,4-pentadienoylamino)benzolactam)], the “effect on alpha cells (ISL1-positive/NKX6.1-negative)” value [1] is reported as “increasing alpha cells”, the “effect on sc-EC cells (NKX6.1-positive/ISL-negative)” value [1] is reported as “similarly effective as VA/PDBU at reducing sc-EC cells” and the “increase in yield of total cells as compared to VA/PDBU” value ([2]; TPPB 0.1 μM on S4d5, S5d1, S5d2) is reported as “more than 2 fold”.

With `CCCC(=O)O[C@@H]1[C@@H](C)[C@@]2(O)[C@@H](C=C(CO)C[C@]3(O)C(=O)C(C)=C[C@@H]23)[C@@H]2C(C)(C)[C@]12OC(=O)CCC` [Version B, phorbol 12,13-dibutyrate] the “percentage of cells expressing CHGA” value [3] was “comparable percentage”, the “percentage of cells expressing DDC (marker of enterochromaffin cells)” value [3] was “much reduced percentage” and the “percentage of cells expressing ISL1” value [3] was “comparable percentage”. The “percentage of EC cells (VMAT1+/C-peptide−)” value ([4]; S6d9) was “less than 20%”, the “percentage of δ cells (SST+/GCG−)” value ([4]; S6d9, listed as vB/S6-a) was “around 5%” and the “percentage of δ cells (SST+/GCG−)” value ([4]; S6d9, listed as vB/S6-b) was “around 7%”. The “percentage of δ cells (SST+/GCG−)” value ([4]; S6d9, listed as vB/S6-d) was “around 8%”, the “percentage of C-peptide-positive, VMAT1-negative cells” value ([4]; S6d14) was “around 45%” and the “percentage of EC cells (VMAT1+/C-peptide−)” value ([4]; S6d14) was “less than 20%”. For the same molecule, the “percentage of α cells (GCG+/SST−)” value ([4]; S6d14, listed as vB/S6-a) was “around 22%”, the “percentage of δ cells (SST+/GCG−)” value ([4]; S6d14, listed as vB/S6-a) was “around 5%” and the “percentage of α cells (GCG+/SST−)” value ([4]; S6d14, listed as vB/S6-b) was “around 22%”. For the same molecule, the “percentage of δ cells (SST+/GCG−)” value ([4]; S6d14, listed as vB/S6-b) was “around 5%”, the “percentage of α cells (GCG+/SST−)” value ([4]; S6d14, listed as vB/S6-c) was “around 15%” and the “percentage of α cells (GCG+/SST−)” value ([4]; S6d14, listed as vB/S6-d) was “around 15%”. The “percentage of δ cells (SST+/GCG−)” value ([4]; S6d14, listed as vB/S6-d) was “around 8%”, the “cells expressing SOX9” value [5] was “increased cells expressing SOX9” and the “insulin secretion in response to 20 mM glucose challenge as compared to 2.8 mM glucose challenge” value (S6d13 cells) was “no clear increase in insulin secretion”. The “responsiveness to glucose challenges (GSIS)” value (S6d13 cells) was “relatively low responsiveness to glucose challenges”, the “insulin content in cells” value [6] was “comparable” and the “effect on alpha cells (ISL1-positive/NKX6.1-negative)” value [1] was “increasing alpha cells”. The “effect on sc-EC cells (NKX6.1-positive/ISL-negative)” value [1] was “reducing sc-EC cells” and the “percentage of ISL1-positive cells” value ([1]; Version A about 65%) was “about 80%”.

For `C[C@H](NC(=O)Cc1cc(F)cc(F)c1)C(=O)N[C@H]1N=C(c2ccccc2)c2ccccc2N(C)C1=O` [XXI], the cell yield ([2]; XXI added to VA/TPPB at days S4d5, S5d1, S5d2) was “reduction in in cell yield”.
